According to patent US20020098186A1, “Use of endothelin inhibitors for treatment or prevention of fibrotic disorders” (priority 1999, published 2002):

How the values were obtained:
Type in all cases: in vivo
[1] = tested on: desmin-positive cells (rat hepatic stellate cells); experiment: Desmin staining of liver sections (activated hepatic stellate cells); conditions: LU-treated animals (data not shown)
[2] = tested on: rat secondary biliary liver fibrosis (BDO); experiment: Histological assessment (staging) of liver fibrosis in BDO rats
Experimental: Female adult wistar rats, average weight 206±19 g, underwent the following microsurgical procedure under an operating microscope (OPMI 6-2, Zeiss, Germany) (B. Gerling, M. Becker, J. Waldschmidt, D. Schuppan (1996). J. Hepatol. 25:79-84; G. Boigk, L. Stroedter, H. Herbst H, et al. (1997). Hepatology 26:643-639.): 1. midline abdominal incision following anaesthesia with 100 mg/kg ketamine-hydroochloride (Ketanest®, Parke-Davis, Germany) and 10 mg/kg 5,6-dihydro-2-(2,6-xylidino)-4H-1,3-thiazine-hydrochloride (Rompun®, Bayer, Germany); 2. dissection of the common bile duct, insertion of a teflon catheter (Abbocath -T 26 G, venisystems, U.S.A.) and placement of a distal complete and a proximal incomplete ligature with 5-0 silk (Permahand , Ethicon, Germany); 3. retrograde injection of sodium-amidotrizoate (Ethibloc®, Ethicon Germany) at a dose of 0.02 ml/100 g body weight; 4. removal of the catheter, closure of the proximal ligature, scission of the bile duct between the ligatures and wound closure. After bile duct occlusion (BDO), animals received normal chow (Altromin®, Lage, Germany) and were allowed free access to water. […] The following therapeutic groups were formed: 1. BDO and LU at 80 mg/kg/d for 6 weeks (BDO 80/1-6:n=20); 2. BDO and LU at 80 mg/kg/d from week 4-6 of BDO (BDO 80/4-6:n=20); 3. BDO and LU at 10 mg/kg/d (sham 80/ 1-6:n=10), rats without medication (control: n=10) and bile duct occluded animals without treatment for 6 weeks (BDO: n=20) served as controls.
For each liver 1 μm paraffin sections of the right and the left lobe were stained with hematoxylin/eosin, trichrome (Masson-Goldner) and silver impregnation (Gomori), and scores (see below of both lobes averaged. Inflammation and necrosis were graded according to the histological activity index of Knodell et al. (R. G. Knodell, K. G. Ishak, W. C. Black, et al. (1981). Hepatology 1:431-435.). Staging of fibrosis was modified from (G. Boigk, L. Stroedter, H. Herbst H, et al. (1997). Hepatology 26:643-649.) as follows: stage 0; normal; stage I: portal fiels marginally expanded by bile ductules; stage II: expanded portal fields which occasionally […] each other; stage III: markedly expanded portal fields, all of which broadly contact each other, separating hepatocellular islands; stage IV: the liver is entirely filled with fibrotic biliary proliferations that entrap few residual hepatocytes (severe cirrhosis). Scores of the right and left lobes were averaged to give single numerical values for each liver.

[3] = tested on: rat secondary biliary liver fibrosis (BDO); experiment: as above; conditions: Sham (sham operation with LU 80 mg/kg/d 6 weeks)
[4] = BDO/LU 80/1-6: LU 80 mg/kg/d week 1-6
[5] = BDO/LU 80/4-6: LU 80 mg/kg/d week 4-6

Question: What does the source list for `COc1cc(OC)nc(O[C@H](C(=O)O)C(OC)(c2ccccc2)c2ccccc2)n1` [LU]?
Answer: Number of desmin-positive cells in liver sections [1]: significantly reduced; Histological assessment of fibrosis: animals at Stage I [2, 4]: 2; Histological assessment of fibrosis: animals at Stage II [2, 4]: 4; Histological assessment of fibrosis: animals at Stage III [2, 4]: 4; Histological assessment of fibrosis: animals at Stage I [2, 5]: 4; Histological assessment of fibrosis: animals at Stage II [2, 5]: 5; Histological assessment of fibrosis: animals at Stage III [2, 5]: 3; Histological assessment of fibrosis: animals at Stage IV [2, 5]: 2; Histological assessment of fibrosis: animals at Stage I ([2]; headed BDO/LU 80/1-6): 8; Histological assessment of fibrosis: animals at Stage II ([2]; headed BDO/LU 80/1-6): 5; Histological assessment of fibrosis: animals at Stage III ([2]; headed BDO/LU 80/1-6): 4; Histological assessment of fibrosis: animals at Stage IV ([2]; headed BDO/LU 80/1-6): 3; Histological fibrosis score ([2]; rats with BDO, administration of LU): improved histological fibrosis score; Architectural distortion of the liver, semiquantitatively graded ([2]; rats with BDO, low-dose vs high-dose group (not shown)): even more significantly reduced in the low-than in the high-dose group; Histological assessment of fibrosis: animals at Stage 0 [3]: 10
